Patent publication US20220009920A1 (GB005, Inc., priority 2020, published 2022)

What was measured:
Assay in all cases: Large panel kinase profiling
Assay type in all cases: biochemical
Details in all cases: 1 μM test article, 1 mM ATP
EPHA1 = biological target: T1, EPHA1 (Homo sapiens, UniProt P21709)
T1 sequence (P21709 26-976): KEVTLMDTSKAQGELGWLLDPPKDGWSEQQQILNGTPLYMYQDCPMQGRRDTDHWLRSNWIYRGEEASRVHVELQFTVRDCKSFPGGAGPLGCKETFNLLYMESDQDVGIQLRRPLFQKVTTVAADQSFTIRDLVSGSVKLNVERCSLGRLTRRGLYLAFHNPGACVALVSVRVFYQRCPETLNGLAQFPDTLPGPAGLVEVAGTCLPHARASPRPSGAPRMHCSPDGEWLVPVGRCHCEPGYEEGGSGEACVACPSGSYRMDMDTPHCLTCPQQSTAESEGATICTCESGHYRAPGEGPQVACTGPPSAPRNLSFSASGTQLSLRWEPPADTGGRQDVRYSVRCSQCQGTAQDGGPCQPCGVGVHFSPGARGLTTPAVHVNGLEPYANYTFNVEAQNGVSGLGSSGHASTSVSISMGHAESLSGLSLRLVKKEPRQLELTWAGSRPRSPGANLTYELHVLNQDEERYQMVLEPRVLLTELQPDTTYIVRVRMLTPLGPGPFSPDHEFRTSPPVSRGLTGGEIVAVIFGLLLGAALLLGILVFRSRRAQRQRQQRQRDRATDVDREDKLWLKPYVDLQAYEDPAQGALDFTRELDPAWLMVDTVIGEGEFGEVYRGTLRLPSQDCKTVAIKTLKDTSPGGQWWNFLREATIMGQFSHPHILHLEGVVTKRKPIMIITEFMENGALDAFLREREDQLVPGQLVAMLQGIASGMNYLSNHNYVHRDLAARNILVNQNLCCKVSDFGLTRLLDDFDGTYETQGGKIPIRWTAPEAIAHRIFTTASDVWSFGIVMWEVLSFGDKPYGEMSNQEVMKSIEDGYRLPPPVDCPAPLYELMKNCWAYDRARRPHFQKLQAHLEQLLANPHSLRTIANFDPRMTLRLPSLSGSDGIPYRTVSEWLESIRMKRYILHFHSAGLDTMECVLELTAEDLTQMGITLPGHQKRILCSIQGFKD
How it was run: (§1)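 One compound concentration (1 μM) was screened against each kinase at 1 mM ATP using PhosphoSens CSox-Sensor detection, at 30° C., with fluorescence read every 1 min (Ex 360 nm/Em 485 nm).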

EPHA7 = EPHA7 (Homo sapiens, UniProt Q15375)
Sequence of EPHA7 (Q15375 28-998, species assumed): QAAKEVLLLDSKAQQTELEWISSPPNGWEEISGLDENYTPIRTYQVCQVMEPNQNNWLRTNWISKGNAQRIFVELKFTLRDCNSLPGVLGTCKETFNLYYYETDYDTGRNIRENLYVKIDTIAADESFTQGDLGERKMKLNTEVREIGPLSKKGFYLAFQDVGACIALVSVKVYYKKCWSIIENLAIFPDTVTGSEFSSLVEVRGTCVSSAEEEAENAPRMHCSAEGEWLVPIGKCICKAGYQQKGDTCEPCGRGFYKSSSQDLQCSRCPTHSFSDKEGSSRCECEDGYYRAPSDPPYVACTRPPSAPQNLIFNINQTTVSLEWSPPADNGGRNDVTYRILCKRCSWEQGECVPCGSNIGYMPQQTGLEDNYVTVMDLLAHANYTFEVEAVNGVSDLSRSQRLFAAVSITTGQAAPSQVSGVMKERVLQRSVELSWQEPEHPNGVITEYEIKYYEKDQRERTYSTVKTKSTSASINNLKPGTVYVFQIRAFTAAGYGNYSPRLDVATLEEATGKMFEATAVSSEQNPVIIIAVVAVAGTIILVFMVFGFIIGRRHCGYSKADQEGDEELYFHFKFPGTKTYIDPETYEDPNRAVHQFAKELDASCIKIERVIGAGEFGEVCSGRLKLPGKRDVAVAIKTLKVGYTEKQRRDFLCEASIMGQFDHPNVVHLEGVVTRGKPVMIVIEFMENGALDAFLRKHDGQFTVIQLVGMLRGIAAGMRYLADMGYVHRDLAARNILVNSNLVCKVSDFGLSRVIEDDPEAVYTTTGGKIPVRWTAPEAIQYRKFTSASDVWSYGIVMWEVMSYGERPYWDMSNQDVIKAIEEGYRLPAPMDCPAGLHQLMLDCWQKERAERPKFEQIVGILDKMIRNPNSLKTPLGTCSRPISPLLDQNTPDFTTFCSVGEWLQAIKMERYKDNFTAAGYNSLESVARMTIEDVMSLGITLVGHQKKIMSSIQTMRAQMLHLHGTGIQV
How it was run: as §1

STK11/LKB1 = biological target: T2, STK11/LKB1 (Homo sapiens, UniProt Q15831)
T2 construct: AssayQuant Technologies, Inc. (contract assay)
T2 sequence (Q15831 1-433): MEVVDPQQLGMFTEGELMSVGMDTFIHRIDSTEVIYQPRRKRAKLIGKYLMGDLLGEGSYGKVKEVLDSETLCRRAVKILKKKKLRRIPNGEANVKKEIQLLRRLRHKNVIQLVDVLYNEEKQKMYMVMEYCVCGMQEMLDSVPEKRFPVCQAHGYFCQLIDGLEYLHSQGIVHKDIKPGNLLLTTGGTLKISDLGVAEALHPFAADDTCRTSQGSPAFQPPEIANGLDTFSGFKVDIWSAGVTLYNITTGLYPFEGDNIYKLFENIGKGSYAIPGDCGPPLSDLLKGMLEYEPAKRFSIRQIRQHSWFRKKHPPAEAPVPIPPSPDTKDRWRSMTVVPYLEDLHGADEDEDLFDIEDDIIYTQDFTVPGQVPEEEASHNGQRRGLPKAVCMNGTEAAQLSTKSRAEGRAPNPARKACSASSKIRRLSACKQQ
T2 sequence (Q7RTN6 1-431 partner): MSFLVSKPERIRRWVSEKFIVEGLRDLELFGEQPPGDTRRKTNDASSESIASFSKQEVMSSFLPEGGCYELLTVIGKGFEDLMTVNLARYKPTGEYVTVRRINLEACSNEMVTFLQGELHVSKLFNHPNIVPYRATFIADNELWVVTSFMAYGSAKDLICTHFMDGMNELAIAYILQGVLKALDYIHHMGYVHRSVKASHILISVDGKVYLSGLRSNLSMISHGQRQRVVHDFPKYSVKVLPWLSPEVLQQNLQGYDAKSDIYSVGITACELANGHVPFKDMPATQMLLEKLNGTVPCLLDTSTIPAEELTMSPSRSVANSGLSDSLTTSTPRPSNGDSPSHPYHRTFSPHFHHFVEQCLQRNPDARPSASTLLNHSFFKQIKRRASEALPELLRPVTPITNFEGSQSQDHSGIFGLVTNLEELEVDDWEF
T2 sequence (Q9Y376 1-341 partner): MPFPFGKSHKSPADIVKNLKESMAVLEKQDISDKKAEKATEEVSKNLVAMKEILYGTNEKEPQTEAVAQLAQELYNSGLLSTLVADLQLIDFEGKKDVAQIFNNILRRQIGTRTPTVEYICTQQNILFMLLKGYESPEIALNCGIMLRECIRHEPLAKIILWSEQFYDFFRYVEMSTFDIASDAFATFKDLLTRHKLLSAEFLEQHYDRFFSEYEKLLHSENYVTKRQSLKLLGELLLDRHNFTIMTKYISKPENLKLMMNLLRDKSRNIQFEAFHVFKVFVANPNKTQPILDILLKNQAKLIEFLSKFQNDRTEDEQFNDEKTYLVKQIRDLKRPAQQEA
How it was run: as §1

TEK/TIE2 = biological target: T3, TEK/TIE2 (Homo sapiens, UniProt Q02763)
T3 construct: AssayQuant Technologies, Inc. (contract laboratory that ran the panel)
T3 sequence (Q02763 23-1124): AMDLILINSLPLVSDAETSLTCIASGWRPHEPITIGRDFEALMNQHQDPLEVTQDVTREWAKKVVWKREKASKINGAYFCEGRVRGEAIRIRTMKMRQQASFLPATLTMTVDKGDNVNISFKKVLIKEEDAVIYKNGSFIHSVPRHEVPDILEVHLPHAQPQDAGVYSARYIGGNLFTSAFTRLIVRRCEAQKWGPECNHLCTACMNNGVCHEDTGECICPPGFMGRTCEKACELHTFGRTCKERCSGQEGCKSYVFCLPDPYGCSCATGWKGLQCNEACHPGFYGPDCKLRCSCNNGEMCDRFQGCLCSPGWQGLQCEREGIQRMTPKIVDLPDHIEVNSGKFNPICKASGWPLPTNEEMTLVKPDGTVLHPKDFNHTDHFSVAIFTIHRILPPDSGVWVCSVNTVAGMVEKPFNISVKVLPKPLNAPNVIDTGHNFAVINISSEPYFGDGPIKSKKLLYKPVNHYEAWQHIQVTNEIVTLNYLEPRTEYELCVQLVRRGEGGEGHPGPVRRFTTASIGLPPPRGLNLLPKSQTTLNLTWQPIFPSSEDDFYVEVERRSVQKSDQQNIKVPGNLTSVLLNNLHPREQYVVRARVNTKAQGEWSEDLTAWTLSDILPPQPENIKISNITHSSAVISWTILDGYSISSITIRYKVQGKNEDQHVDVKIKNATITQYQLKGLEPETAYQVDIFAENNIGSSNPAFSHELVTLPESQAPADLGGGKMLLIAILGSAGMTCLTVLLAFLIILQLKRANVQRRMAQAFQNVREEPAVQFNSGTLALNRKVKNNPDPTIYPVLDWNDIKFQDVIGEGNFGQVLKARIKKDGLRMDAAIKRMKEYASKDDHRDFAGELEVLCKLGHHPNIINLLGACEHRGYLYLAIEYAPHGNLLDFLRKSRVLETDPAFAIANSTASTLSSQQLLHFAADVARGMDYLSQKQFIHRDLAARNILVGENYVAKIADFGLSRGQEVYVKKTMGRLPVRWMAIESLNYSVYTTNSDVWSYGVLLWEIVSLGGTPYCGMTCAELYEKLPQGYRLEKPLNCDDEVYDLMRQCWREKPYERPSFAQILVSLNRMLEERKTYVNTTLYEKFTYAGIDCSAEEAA
How it was run: as §1

TNK2/ACK = biological target: T4, TNK2/ACK (Homo sapiens, UniProt Q07912)
T4 construct: AssayQuant Technologies, Inc. (contract laboratory that ran the panel)
How it was run: as §1

RPS6KA2/RSK3 = RPS6KA2/RSK3 (Homo sapiens, UniProt Q15349)
Sequence of RPS6KA2/RSK3 (Q15349 whole entry): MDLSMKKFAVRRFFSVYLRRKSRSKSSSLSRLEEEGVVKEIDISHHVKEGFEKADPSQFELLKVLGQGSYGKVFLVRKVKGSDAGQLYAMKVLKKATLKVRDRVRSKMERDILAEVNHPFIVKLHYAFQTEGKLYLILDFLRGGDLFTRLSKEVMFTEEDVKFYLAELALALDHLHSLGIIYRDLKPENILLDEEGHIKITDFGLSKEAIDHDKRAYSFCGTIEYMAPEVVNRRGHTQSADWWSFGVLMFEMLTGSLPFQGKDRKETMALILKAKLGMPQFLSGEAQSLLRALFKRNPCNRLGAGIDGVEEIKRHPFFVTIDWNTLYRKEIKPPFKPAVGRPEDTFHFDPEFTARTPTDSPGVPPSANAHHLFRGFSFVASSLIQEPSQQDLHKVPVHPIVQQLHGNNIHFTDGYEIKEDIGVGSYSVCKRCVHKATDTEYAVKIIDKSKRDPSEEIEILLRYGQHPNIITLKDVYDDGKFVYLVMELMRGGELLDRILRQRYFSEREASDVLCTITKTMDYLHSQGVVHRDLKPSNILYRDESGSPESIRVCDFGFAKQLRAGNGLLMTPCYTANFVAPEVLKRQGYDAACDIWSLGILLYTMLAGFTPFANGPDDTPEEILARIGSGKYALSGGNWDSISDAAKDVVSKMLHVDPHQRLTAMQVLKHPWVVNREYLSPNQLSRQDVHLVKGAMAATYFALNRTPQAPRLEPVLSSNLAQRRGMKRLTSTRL
How it was run: as §1

PRKCQ/PKCQ = PRKCQ/PKCQ (Homo sapiens, UniProt Q04759)
Sequence of PRKCQ/PKCQ (Q04759 whole entry): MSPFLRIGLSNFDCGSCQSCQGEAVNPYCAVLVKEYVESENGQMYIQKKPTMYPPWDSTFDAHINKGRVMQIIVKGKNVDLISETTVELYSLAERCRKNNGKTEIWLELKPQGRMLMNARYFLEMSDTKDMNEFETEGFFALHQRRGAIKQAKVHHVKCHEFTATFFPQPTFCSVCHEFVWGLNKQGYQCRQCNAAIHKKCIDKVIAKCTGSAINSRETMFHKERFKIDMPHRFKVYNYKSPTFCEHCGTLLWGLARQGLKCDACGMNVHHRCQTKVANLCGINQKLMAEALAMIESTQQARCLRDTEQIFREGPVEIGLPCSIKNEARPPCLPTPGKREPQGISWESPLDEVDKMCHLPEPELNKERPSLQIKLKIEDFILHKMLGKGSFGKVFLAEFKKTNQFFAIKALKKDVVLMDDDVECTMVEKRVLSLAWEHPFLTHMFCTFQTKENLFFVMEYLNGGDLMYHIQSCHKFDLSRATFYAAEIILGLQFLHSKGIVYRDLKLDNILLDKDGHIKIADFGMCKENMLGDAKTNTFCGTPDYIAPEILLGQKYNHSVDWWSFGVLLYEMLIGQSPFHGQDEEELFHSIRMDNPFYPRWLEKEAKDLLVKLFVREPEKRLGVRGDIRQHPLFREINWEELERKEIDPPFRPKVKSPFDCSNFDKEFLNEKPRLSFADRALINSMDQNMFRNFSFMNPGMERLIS
How it was run: as §1

IGF1R = biological target: T5, IGF1R (Homo sapiens, UniProt P08069)
T5 construct: AssayQuant Technologies, Inc. (service provider)
T5 sequence (P08069 31-1367, species assumed): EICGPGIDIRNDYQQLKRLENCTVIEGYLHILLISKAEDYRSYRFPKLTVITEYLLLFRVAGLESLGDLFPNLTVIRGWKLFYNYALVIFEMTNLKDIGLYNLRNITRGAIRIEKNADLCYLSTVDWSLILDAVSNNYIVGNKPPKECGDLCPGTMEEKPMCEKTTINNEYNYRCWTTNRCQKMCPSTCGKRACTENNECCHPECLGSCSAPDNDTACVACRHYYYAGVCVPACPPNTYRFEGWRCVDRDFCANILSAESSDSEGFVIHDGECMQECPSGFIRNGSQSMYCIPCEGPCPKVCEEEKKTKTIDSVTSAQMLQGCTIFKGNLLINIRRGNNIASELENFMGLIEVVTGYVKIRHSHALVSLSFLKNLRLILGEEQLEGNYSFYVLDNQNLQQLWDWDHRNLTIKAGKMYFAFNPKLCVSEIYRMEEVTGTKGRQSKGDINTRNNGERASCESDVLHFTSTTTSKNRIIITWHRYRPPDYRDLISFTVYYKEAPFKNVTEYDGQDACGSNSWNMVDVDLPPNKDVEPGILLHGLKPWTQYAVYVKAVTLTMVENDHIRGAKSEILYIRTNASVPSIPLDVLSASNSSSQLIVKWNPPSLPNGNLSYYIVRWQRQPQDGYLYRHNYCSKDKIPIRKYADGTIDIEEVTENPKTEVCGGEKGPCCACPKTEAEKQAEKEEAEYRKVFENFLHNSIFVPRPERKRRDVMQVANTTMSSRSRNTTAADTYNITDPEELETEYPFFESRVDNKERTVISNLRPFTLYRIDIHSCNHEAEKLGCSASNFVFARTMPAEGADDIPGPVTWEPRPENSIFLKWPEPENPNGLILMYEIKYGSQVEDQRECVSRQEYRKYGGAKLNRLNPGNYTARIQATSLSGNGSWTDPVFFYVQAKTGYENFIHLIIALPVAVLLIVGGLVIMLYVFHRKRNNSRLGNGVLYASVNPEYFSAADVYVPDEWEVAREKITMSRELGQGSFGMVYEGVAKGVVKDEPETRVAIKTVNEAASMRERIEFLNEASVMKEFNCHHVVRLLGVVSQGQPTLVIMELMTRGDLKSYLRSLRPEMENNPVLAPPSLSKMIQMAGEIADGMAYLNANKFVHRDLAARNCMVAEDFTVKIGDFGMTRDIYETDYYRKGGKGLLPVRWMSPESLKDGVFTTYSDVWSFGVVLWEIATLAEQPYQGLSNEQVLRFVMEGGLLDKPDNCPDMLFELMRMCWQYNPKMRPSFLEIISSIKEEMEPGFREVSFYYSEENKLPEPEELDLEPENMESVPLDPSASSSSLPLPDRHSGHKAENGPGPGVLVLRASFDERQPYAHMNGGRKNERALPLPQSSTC
How it was run: as §1

Row | SMILES | inhibition at 1 µM (EPHA1) [%] | inhibition at 1 µM (EPHA7) [%] | inhibition at 1 µM (STK11/LKB1) [%] | inhibition at 1 µM (TEK/TIE2) [%] | inhibition at 1 µM (TNK2/ACK) [%] | inhibition at 1 µM (RPS6KA2/RSK3) [%] | inhibition at 1 µM (PRKCQ/PKCQ) [%] | inhibition at 1 µM (IGF1R) [%]
1 | C=CC(=O)N1CCCC(c2c(F)cc(C(N)=O)c3[nH]c4c(c23)CCCCC4)C1 (single isomer, unassigned) [Compound 5-6] | 3.7 | -0.1 | 23.5 | -11.2 | -8.3 | 1.7 | -3.7 | -16.7
2 | C=CC(=O)N1CCC[C@@H](c2c(F)cc(C(N)=O)c3[nH]c4c(c23)CC2(CC4)CC2)C1 [Compound 6-2, (S)-5-(1-acryloylpiperidin-3-yl)-6-fluoro-1,2,4,9-tetrahydrospiro[carbazole-3,1′-cyclopropane]-8-carboxamide] | 22 | 5.1 | -4.3 | 4.6 | 13.4 | -47.9 | 0.7 | -11.6
3 | C=CC(=O)N1CCC[C@@H](c2c(F)cc(C(N)=O)c3[nH]c4c(c23)CCC4)C1 [Compound 10-2, (S)-8-(1-acryloylpiperidin-3-yl)-7-fluoro-1,2,3,4-tetrahydrocyclo-penta[b]indole-5-carboxamide] | 8.5 | -4.7 | -6 | -15.2 | 2 | -38 | -72.5 | -26.1
